Broadly, the Kd is the equilibrium constant for the complex coming apart.

The results in this text go back to ChEMBL document CHEMBL3991601, “The target landscape of clinical kinase drugs” (Science, 2017).

Experiment [1] addresses T1, Mitogen-activated protein kinase kinase kinase 3 (Homo sapiens, UniProt Q99759).
T1 sequence (Q99759 whole entry): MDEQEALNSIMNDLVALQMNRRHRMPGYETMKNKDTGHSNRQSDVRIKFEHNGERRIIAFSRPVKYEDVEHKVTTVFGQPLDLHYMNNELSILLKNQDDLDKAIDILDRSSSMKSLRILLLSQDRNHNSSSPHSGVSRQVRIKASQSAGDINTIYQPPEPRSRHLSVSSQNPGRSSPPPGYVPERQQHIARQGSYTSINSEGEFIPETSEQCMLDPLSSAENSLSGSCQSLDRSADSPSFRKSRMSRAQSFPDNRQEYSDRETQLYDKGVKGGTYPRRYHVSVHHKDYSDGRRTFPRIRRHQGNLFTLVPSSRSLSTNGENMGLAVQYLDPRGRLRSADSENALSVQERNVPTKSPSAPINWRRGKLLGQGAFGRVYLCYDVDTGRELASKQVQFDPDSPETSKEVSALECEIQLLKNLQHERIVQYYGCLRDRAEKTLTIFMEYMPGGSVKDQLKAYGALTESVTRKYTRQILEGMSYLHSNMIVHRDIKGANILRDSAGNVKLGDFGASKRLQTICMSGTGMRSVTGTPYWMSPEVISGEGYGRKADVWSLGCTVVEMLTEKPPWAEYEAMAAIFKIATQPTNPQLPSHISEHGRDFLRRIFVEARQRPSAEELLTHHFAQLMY

Experiment [2] addresses T2, Phenylalanine--tRNA ligase beta subunit (Homo sapiens, UniProt Q9NSD9).
T2 sequence (Q9NSD9 whole entry): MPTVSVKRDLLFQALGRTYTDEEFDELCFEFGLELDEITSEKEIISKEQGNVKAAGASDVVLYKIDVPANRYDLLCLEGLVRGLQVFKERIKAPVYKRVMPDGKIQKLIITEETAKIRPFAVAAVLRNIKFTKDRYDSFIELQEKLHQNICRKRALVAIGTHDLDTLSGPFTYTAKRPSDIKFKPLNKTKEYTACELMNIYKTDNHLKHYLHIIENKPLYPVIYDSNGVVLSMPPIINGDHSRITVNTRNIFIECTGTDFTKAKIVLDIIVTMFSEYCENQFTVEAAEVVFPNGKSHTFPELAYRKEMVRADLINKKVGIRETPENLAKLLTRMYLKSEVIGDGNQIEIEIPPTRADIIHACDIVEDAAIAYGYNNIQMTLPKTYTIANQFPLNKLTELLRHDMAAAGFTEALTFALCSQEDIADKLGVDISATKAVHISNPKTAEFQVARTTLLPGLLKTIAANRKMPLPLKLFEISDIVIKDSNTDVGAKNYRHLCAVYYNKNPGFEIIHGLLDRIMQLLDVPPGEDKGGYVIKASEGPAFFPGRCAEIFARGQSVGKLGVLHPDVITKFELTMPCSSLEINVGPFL

Experiment [3] concerns the target T3, Serine/threonine-protein kinase ULK1 (Homo sapiens, UniProt O75385).
T3 sequence (O75385 whole entry): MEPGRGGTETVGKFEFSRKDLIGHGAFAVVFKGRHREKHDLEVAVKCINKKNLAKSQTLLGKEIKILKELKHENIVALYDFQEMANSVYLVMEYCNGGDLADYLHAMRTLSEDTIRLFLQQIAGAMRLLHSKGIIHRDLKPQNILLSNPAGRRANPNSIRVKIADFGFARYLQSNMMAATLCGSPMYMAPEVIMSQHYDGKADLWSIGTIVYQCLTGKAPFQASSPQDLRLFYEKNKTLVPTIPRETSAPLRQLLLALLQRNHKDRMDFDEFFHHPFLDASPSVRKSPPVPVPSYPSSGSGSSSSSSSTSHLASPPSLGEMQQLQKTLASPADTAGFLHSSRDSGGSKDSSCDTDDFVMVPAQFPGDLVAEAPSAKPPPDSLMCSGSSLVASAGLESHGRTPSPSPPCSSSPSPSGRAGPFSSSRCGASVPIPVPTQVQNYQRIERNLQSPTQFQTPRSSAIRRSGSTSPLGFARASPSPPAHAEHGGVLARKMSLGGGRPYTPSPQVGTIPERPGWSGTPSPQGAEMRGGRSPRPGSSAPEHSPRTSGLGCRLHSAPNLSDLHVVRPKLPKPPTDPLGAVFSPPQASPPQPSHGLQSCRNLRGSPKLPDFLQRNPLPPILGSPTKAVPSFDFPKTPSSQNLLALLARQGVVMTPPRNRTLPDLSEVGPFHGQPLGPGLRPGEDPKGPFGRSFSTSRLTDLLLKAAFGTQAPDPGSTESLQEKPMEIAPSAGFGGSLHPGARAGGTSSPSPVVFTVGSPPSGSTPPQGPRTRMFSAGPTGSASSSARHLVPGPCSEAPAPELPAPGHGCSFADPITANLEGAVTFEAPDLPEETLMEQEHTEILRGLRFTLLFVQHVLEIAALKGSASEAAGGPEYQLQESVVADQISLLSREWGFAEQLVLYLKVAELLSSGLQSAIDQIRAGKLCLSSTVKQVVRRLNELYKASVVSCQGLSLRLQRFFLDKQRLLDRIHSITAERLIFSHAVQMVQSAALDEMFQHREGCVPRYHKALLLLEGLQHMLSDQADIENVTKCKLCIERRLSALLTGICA

The target in experiment [4] is cAMP-dependent protein kinase catalytic subunit alpha (Homo sapiens, UniProt P17612).
The target of experiment [5] is T4, TGF-beta receptor type-1 (Homo sapiens, UniProt P36897).
T4 sequence (P36897 whole entry): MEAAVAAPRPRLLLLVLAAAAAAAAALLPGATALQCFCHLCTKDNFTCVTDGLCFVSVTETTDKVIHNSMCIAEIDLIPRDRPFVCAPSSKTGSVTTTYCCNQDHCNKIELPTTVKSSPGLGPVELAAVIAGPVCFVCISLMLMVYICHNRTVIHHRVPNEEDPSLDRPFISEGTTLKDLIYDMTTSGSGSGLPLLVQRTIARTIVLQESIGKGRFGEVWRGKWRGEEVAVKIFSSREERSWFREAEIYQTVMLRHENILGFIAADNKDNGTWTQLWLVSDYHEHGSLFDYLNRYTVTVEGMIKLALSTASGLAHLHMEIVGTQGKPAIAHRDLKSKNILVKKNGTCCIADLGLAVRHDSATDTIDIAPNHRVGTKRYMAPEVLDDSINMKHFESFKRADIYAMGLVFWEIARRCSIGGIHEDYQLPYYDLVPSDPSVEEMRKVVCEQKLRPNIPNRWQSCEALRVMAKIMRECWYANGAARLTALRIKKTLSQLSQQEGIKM

For experiment [6], the target named is Ribosomal protein S6 kinase alpha-4 (Homo sapiens, UniProt O75676).
Experiment [7] has as its target 5'-AMP-activated protein kinase catalytic subunit alpha-1 (Homo sapiens, UniProt Q13131).
Experiment [8] deals with Mitogen-activated protein kinase kinase kinase 4 (Homo sapiens, UniProt Q9Y6R4).

Activity calls are given as the source filed them. Cut-off read from the data, not from the text of the source, for most assays here: actives have a measured Kd and inactives only a lower limit. A value given as a limit tells only on which side of the number the result lay.
Note: in the data inactive means no Kd found up to 30 µM.

Mitogen-activated protein kinase kinase kinase 4, sequence (Q9Y6R4 whole entry): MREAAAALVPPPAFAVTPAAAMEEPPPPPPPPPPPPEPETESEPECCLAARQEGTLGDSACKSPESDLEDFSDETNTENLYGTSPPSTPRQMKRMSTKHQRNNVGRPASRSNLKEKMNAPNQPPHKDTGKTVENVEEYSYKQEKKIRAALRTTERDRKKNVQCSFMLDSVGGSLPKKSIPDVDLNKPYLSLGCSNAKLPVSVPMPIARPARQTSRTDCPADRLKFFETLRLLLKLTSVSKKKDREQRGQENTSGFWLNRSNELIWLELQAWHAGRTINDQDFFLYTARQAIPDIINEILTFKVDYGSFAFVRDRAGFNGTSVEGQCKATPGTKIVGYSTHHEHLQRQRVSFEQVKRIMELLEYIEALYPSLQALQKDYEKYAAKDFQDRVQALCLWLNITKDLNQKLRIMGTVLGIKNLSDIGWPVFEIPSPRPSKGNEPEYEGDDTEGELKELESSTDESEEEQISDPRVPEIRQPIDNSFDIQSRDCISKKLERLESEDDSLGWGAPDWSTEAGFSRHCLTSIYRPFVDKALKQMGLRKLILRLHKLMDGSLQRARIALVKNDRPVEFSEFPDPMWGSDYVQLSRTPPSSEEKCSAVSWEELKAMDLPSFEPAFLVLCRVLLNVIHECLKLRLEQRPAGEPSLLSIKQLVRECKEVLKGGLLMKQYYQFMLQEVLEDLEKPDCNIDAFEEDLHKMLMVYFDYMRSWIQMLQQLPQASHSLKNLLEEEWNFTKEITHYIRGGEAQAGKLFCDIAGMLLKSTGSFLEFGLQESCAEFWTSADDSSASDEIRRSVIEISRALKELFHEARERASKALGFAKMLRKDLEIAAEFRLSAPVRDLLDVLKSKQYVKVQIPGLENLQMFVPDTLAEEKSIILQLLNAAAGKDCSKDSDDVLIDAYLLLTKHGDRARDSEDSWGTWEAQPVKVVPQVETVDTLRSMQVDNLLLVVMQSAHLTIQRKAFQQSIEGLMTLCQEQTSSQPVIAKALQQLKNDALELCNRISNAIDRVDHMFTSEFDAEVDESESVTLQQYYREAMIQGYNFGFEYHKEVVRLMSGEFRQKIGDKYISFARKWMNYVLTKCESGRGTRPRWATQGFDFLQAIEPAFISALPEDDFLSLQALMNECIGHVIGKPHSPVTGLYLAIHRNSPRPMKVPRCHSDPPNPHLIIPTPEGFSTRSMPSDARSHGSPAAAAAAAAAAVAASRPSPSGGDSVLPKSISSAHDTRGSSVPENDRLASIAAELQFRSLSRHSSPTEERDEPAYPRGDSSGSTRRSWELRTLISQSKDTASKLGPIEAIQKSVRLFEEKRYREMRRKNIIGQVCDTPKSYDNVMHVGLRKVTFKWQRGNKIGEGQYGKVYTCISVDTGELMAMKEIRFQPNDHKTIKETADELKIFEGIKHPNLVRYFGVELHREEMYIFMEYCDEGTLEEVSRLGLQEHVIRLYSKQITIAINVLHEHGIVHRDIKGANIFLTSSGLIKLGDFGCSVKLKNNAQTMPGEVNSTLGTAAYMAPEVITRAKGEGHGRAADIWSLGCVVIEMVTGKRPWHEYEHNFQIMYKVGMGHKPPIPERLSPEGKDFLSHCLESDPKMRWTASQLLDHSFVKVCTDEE
5'-AMP-activated protein kinase catalytic subunit alpha-1, sequence (Q13131 whole entry): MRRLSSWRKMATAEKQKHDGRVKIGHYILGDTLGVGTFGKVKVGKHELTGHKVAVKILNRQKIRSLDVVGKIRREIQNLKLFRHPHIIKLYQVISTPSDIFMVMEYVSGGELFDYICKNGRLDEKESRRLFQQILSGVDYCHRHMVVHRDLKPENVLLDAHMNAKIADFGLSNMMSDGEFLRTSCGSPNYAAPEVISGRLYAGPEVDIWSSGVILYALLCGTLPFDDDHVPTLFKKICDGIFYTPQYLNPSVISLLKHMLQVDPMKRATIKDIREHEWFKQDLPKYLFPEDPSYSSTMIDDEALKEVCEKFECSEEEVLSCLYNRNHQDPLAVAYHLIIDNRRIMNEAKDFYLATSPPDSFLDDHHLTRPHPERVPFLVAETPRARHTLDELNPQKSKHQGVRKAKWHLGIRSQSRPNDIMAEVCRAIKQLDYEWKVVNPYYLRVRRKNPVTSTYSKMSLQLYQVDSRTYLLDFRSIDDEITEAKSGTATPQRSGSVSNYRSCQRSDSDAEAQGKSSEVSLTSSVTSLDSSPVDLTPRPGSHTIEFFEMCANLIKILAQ
Ribosomal protein S6 kinase alpha-4, sequence (O75676 whole entry): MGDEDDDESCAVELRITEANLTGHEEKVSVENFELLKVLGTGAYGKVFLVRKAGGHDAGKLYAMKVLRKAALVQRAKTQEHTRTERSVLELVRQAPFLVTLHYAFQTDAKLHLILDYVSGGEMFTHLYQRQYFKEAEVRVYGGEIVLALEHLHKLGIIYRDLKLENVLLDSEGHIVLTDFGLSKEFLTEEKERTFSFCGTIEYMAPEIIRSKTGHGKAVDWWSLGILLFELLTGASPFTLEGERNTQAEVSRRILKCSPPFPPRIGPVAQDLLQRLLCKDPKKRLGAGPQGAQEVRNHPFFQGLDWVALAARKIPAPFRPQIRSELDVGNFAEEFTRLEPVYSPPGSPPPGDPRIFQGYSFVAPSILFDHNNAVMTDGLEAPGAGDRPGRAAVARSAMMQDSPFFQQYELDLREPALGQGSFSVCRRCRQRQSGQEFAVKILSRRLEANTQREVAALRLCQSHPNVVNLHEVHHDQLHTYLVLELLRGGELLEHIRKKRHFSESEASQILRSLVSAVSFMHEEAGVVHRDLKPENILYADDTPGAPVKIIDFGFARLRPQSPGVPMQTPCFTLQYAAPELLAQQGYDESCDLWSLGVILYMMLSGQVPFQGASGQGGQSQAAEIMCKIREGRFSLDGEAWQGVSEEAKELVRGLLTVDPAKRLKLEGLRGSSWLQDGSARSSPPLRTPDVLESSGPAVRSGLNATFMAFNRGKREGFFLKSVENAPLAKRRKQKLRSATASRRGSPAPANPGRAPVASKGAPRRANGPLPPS

For the molecule `Cc1nc2cc(-n3ncc(C(=O)c4cc5ccccc5[nH]4)c3N)ccc2[nH]1` [FGFR INHIBITOR DEBIO 1347], the Kd in experiment [1], in experiment [2], in experiment [3], in experiment [4], in experiment [5] and in experiment [6] was > 30 µM (inactive) throughout. Besides, the Kd in experiment [7] and in experiment [8] was > 30 µM (inactive) in each case.
With `O=C(Nc1nc2cccc(-c3ccc(CN4CCS(=O)(=O)CC4)cc3)n2n1)C1CC1` [FILGOTINIB], the Kd in experiment [1], in experiment [2], in experiment [3], in experiment [4], in experiment [5] and in experiment [6] was > 30 µM (inactive) throughout. The Kd in experiment [7] and in experiment [8] was > 30 µM (inactive) each time.
Consider `CCn1cc(-c2ccnc3[nH]c(-c4cccc(CN(C)C)c4)cc23)c(-c2ccc(NC(=O)N(C)C)cc2)n1` [GSK-1070916], for which the Kd in experiment [1] was > 30 µM (inactive); in experiment [2], > 30 µM (inactive); in experiment [3], > 30 µM (inactive); in experiment [4], > 30 µM (inactive); in experiment [5] it was 1.94 µM (active); in experiment [6], > 30 µM (inactive). In addition, the Kd is > 30 µM (inactive) in experiment [7] and 1.43 µM (active) in experiment [8].
As for `COc1ccc(S(=O)(=O)N(C(C)=O)c2ccccc2/C=C/c2cc[n+]([O-])cc2)cc1` [HMN-214], the Kd in experiment [1], in experiment [2], in experiment [3], in experiment [4], in experiment [5] and in experiment [6] was > 30 µM (inactive) each time. Besides, the Kd in experiment [7] and in experiment [8] was > 30 µM (inactive) each time.
Regarding `CNC(=O)c1cccc2cc(Oc3ccnc4cc(OCC5(N)CC5)c(OC)cc34)ccc12` [LUCITANIB], the Kd in experiment [1], in experiment [2], in experiment [3], in experiment [4], in experiment [5] and in experiment [6] was > 30 µM (inactive) in each case. Also, the Kd in experiment [7] and in experiment [8] was > 30 µM (inactive) throughout.
For `CNC(=O)c1nn(C)c2c1C(C)(C)Cc1cnc(Nc3ccc(N4CCN(C)CC4)cc3)nc1-2` [MILCICLIB], the Kd in experiment [1] is > 30 µM (inactive); in experiment [2], > 30 µM (inactive); in experiment [3] it was 1.75 µM (active); in experiment [4], > 30 µM (inactive); in experiment [5], > 30 µM (inactive); in experiment [6] it was > 30 µM (inactive). Further, the Kd in experiment [7] was > 30 µM (inactive); in experiment [8] it was 4.02 µM (active).
Take `NC1(c2ccc(-c3nc4ccn5c(=O)[nH]nc5c4cc3-c3ccccc3)cc2)CCC1` [MK-2206]: the Kd in experiment [1], in experiment [2], in experiment [3], in experiment [4], in experiment [5] and in experiment [6] was > 30 µM (inactive) each time. In addition, the Kd in experiment [7] and in experiment [8] was > 30 µM (inactive) throughout.
Consider `CN(C[C@@H]1COCCO1)S(=O)(=O)Nc1ccc2ccc3ncc(-c4cnn(C)c4)cc3c(=O)c2c1` [MK-2461], for which the Kd in experiment [1], in experiment [2], in experiment [3], in experiment [4], in experiment [5] and in experiment [6] was > 30 µM (inactive) throughout. Moreover, the Kd in experiment [7] and in experiment [8] was > 30 µM (inactive) throughout.
Take `Cn1cc(-c2cnc3ccc4ccc(CS(=O)(=O)NCc5ccccn5)cc4c(=O)c3c2)cn1` [MK-8033]: the Kd in experiment [1], in experiment [2], in experiment [3], in experiment [4], in experiment [5] and in experiment [6] was > 30 µM (inactive) in each case. Moreover, the Kd in experiment [7] and in experiment [8] was > 30 µM (inactive) throughout.
Turning to `FC(F)(F)c1ccc(/C=C/c2nc(COc3ccc(CCCCn4ccnn4)cc3)co2)cc1` [MUBRITINIB], the Kd in experiment [1], in experiment [2], in experiment [3], in experiment [4], in experiment [5] and in experiment [6] was > 30 µM (inactive) each time. Further, the Kd in experiment [7] and in experiment [8] was > 30 µM (inactive) in each case.
For the molecule `COc1ncc(-c2ccc3nccc(-c4ccnnc4)c3c2)cc1NS(=O)(=O)c1ccc(F)cc1F` [OMIPALISIB], the Kd in experiment [1], in experiment [2], in experiment [3], in experiment [4], in experiment [5] and in experiment [6] was > 30 µM (inactive) throughout. Besides, the Kd in experiment [7] and in experiment [8] was > 30 µM (inactive) in each case.
In the case of `CCCCCCCCCCCCCCCCCCOP(=O)([O-])OC1CC[N+](C)(C)CC1` [PERIFOSINE], the Kd in experiment [1], in experiment [2], in experiment [3], in experiment [4], in experiment [5] and in experiment [6] was > 30 µM (inactive) throughout. The Kd in experiment [7] and in experiment [8] was > 30 µM (inactive) in each case.
